Laboratory results from US20140303164A1, “THERAPEUTIC COMPOUNDS” (Gilead Sciences, Inc., priority 2013, published 2014).

Assays:
HIV-IIIb = assay: Test A: Antiviral Assay in MT4 Cells; format: cell-based, HIV-1; conditions: for inhibition at 0.2 µM / inhibition at 2 µM: Human immunodeficiency virus 1, IIIB, MT4, 120 h; for inhibition at 0.2 µM: read-out: % inhibition at 0.2 μM; for inhibition at 2 µM: read-out: % inhibition at 2 μM
Protocol: Test A: Antiviral Assay in MT4 Cells
MT-4 cells were next mixed with HIV-IIIb at an m.o.i of 0.003 for 1 hour, after which time 35 μL of virus/cell mixture (2000 cells) was immediately added to each well containing 40 μL of diluted compound. The plates were then incubated at 37° C. for 5 days. […] Cell lysis was carried out by incubating at room temperature for 10 min and then chemiluminescence was read.

[1] = Test B: Cytotoxicity Assay; format: cell-based; conditions: human, uninfected MT-4 cells, same protocol as Test A
In short: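 Uninfected MT-4 cells (2000 per well) incubated with diluted compound at 37° C. for 5 days, following the antiviral protocol without HIV-IIIb.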

Structure (SMILES) | inhibition at 0.2 µM (HIV-IIIb) [%] | inhibition at 2 µM (HIV-IIIb) [%] | CC50 at 5 days [1] [µM] | Response at 0.2 μM (HIV-IIIb; percent inhibition of virus-induced cell killing at 0.2 μM, comparison with previously published compounds (WO 2013/006738)) [%] | Response at 2 μM (HIV-IIIb; percent inhibition of virus-induced cell killing at 2 μM, comparison with previously published compounds (WO 2013/006738)) [%]
Cn1nc(NC(N)=O)c2c(Cl)ccc(-c3ccc(C#CC(C)(C)O)nc3[C@H](Cc3cc(F)cc(F)c3)NC(=O)Cn3nc(C(F)F)c4c3C(F)(F)[C@@H]3C[C@H]43)c21 [Compound 92, N—((S)-1-(3-(4-chloro-1-methyl-3-ureido-1H-indazol-7-yl)-6-(3-hydroxy-3-methylbut-1-yn-1-yl)pyridin-2-yl)-2-(3,5-difluorophenyl)ethyl)-2-((3bS,4aR)-3-(difluoromethyl)-5,5-difluoro-3b,4,4a,5-tetrahydro-1H-cyclopropa[3,4]cyclopenta[1,2-c]pyrazol-1-yl)acetamide] | 100 | 100 | 6.24 |  | 
CN(C)c1cc(-c2ccc(Cl)c3c(NS(C)(=O)=O)nn(C)c23)c([C@H](Cc2cc(F)cc(F)c2)NC(=O)Cn2nc(C(F)F)c3c2C(F)(F)[C@@H]2C[C@H]32)nc1C#CC(C)(C)O [Compound 183F, N—((S)-1-(3-(4-chloro-1-methyl-3-(methylsulfonamido)-1H-indazol-7-yl)-5-(dimethylamino)-6-(3-hydroxy-3-methylbut-1-yn-1-yl)pyridin-2-yl)-2-(3,5-difluorophenyl)ethyl)-2-((3b-S,4aR)-3-(difluoromethyl)-5,5-difluoro-3b,4,4a,5-tetrahydro-1H-cyclopropa[3,4]cyclopenta[1,2-c]pyrazol-1-yl)acetamide] | 84 | 84 | 12.4 |  | 
Cn1nc(NS(C)(=O)=O)c2c(Cl)ccc(-c3ccc(C#CC(C)(C)O)nc3[C@H](Cc3cccc(F)c3)NC(=O)Cn3nc(C(F)F)c4c3C(F)(F)[C@@H]3C[C@H]43)c21 [Compound 188, N—((S)-1-(3-(4-chloro-1-methyl-3-(methylsulfonamido)-1H-indazol-7-yl)-6-(3-hydroxy-3-methylbut-1-yn-1-yl)pyridin-2-yl)-2-(3-fluorophenyl)ethyl)-2-((3b-S,4aR)-3-(difluoromethyl)-5,5-difluoro-3b,4,4a,5-tetrahydro-1H-cyclopropa[3,4]cyclopenta[1,2-c]pyrazol-1-yl)acetamide] | 92 | 92 | 26.3 |  | 
Cn1nc(NS(C)(=O)=O)c2c(Cl)ccc(-c3ccc(C#CC(C)(C)O)nc3[C@H](Cc3cc(F)cc(F)c3)NC(=O)Cn3nc(C(F)F)c4c3C(F)(F)CCC4(F)F)c21 [Compound 82, (S)—N-(1-(3-(4 chloro-1-methyl-3-(methylsulfonamido)-1H-indazol-7-yl)-6-(3-hydroxy-3-methylbut-1-yn-1-yl)pyridin-2-yl)-2-(3,5-difluorophenyl)ethyl)-2-(3-(difluoromethyl)-4,4,7,7-tetrafluoro-4,5,6,7-tetrahydro-1H-indazol-1-yl)acetamide] | 99 | 99 | 9.7 |  | 
Cn1nc(NS(C)(=O)=O)c2c(Cl)ccc(-c3ccc(-c4ncccn4)nc3[C@H](Cc3cc(F)cc(F)c3)NC(=O)Cn3nc(C(F)(F)F)c4c3C(F)(F)[C@@H]3C[C@H]43)c21 [Compound 176, N—((S)-1-(3-(4-chloro-1-methyl-3-(methylsulfonamido)-1H-indazol-7-yl)-6-(pyrimidin-2-yl)pyridin-2-yl)-2-(3,5-difluorophenyl)ethyl)-2-((3b-S,4aR)-5,5-difluoro-3-(trifluoromethyl)-3b,4,4a,5-tetrahydro-1H-cyclopropa[3,4]cyclopenta[1,2-c]pyrazol-1-yl)acetamide] | 100 | 100 | 17.4 |  | 
CC(C)(O)C#Cc1ccc(-c2ccc3[nH]nc(N)c3c2)c([C@H](Cc2cc(F)cc(F)c2)NC(=O)Cn2nc(C(F)(F)F)c3c2C(F)(F)[C@@H]2C[C@H]32)n1 [Compound 46, N—((S)-1-(3-(3-amino-1H-indazol-5-yl)-6-(3-hydroxy-3-methylbut-1-yn-1-yl)pyridin-2-yl)-2-(3,5-difluorophenyl)ethyl)-2-((3b-S,4aR)-5,5-difluoro-3-(trifluoromethyl)-3b,4,4a,5-tetrahydro-1H-cyclopropa[3,4]cyclopenta[1,2-c]pyrazol-1-yl)acetamide] | 87 | 89 | 10.5 |  | 
CC(C)(O)C#Cc1ccc(-c2ccc(F)c(C(N)=O)c2)c([C@H](Cc2cc(F)cc(F)c2)NC(=O)Cn2nc(C(F)F)c3c2C(F)(F)CCC3(F)F)n1 [Compound 28, (S)-5-(2-(1-(2-(3 (difluoromethyl)-4,4,7,7-tetrafluoro-4,5,6,7-tetrahydro-1H-indazol-1-yl)acetamido)-2-(3,5-difluorophenyl)ethyl)-6-(3-hydroxy-3-methylbut-1-yn-1-yl)pyridin-3-yl)-2-fluorobenzamide] |  |  | 12.2 | 71 | 84
Cn1nc(NS(C)(=O)=O)c2c(Cl)ccc(-c3ccc(C#CCOCCO)nc3[C@H](Cc3cc(F)cc(F)c3)NC(=O)Cn3nc(C(F)(F)F)c4c3C(F)(F)[C@@H]3C[C@H]43)c21 [Compound 153, N—((S)-1-(3-(4-chloro-1-methyl-3-(methylsulfonamido)-1H-indazol-7-yl)-6-(3-(2-hydroxyethoxy)prop-1-yn-1-yl)pyridin-2-yl)-2-(3,5-difluorophenyl)ethyl)-2-((3b-S,4aR)-5,5-difluoro-3-(trifluoromethyl)-3b,4,4a,5-tetrahydro-1H-cyclopropa[3,4]cyclopenta[1,2-c]pyrazol-1-yl)acetamide] | 98 | 98 | 18.6 |  | 
CN(C)C(=O)c1nn(CC(=O)N[C@@H](Cc2cc(F)cc(F)c2)c2nc(C#CC(C)(C)O)ccc2-c2ccc(Cl)c3c(NS(C)(=O)=O)nn(C)c23)c2c1[C@H]1C[C@H]1C2(F)F [Compound 164, (3bS,4aR)-1-(2-(((S)-1-(3-(4-chloro-1-methyl-3-(methylsulfonamido)-1H-indazol-7-yl)-6-(3-hydroxy-3-methylbut-1-yn-1-yl)pyridin-2-yl)-2-(3,5-difluorophenyl)ethyl)amino)-2-oxoethyl)-5,5-difluoro-N,N-dimethyl-3b,4,4a,5-tetrahydro-1H-cyclopropa[3,4]cyclopenta[1,2-c]pyrazole-3-carboxamide] | 96 | 97 | 40.5 |  | 
Cn1nc(NS(C)(=O)=O)c2c(Cl)ccc(-c3ccc(C#CC(C)(C)C)nc3[C@H](Cc3cc(F)cc(F)c3)NC(=O)Cn3nc(C(F)F)c4c3C(F)(F)[C@@H]3C[C@H]43)c21 [Compound 131E, N—((S)-1-(3-(4-chloro-1-methyl-3-(methylsulfonamido)-1H-indazol-7-yl)-6-(3,3-dimethylbut-1-yn-1-yl)pyridin-2-yl)-2-(3,5-difluorophenyl)ethyl)-2-((3b-S,4aR)-3-(difluoromethyl)-5,5-difluoro-3b,4,4a,5-tetrahydro-1H-cyclopropa[3,4]cyclopenta[1,2-c]pyrazol-1-yl)acetamide] | 95 | 96 | 22.5 |  | 
